Results on one molecule are retold here after PMC9326216, “Treatment of Cardiovascular Dysfunction with PDE3-Inhibitors in Moderate and Severe Hypothermia—Effects on Cellular Elimination of Cyclic Adenosine Monophosphate and Cyclic Guanosine Monophosphate” (Frontiers in Physiology, 2022).

One data set relates to ABCC5. The format is biochemical. On the procedure: Freshly collected EDTA blood from healthy donors (n = 35) was prepared at 0°C–4°C, starting by separating the erythrocytes from plasma by centrifugation at 2,300 g for approximately 15 min. […] Lysis followed thereafter, with ten volumes of 5 mM Tris-HCl, 0.5 mM EGTA, 4 mM KCl (pH 8.1) and washed by repeated centrifugation at 20,000 g for 20 min and resuspension in the same buffer. Vesiculation was initiated by adding 39 volumes of a […] buffer ([…] Tris-HCl, pH 8.2) to one volume of cell suspension and completed by forcing the solution five times through a 27-gauge syringe needle to promote homogenization of the membranes. […] The resulting IOVs, which still contained ABC-transporters in the membrane, enabled us to control the intracellular environment, in this case the surrounding medium, and collect the cyclic nucleotides within. […] Radioactive labeled (^3H)-cAMP or (^3H)-cGMP (Perkin Elmer, Boston, MA, United States) were added to the incubation solutions in the concentration 20 and 2 μM, respectively, depending on the transporter examined, together with the appointed study drug in concentrations up to 1 mM. […] Next step was to collect the IOVs, which was done by filtration through a nitrocellulose membrane (Bio-Rad Laboratories, Feldkirchen, Germany), and then drying it. The resulting collection of radioactivity upon the filter, was later quantified by using a Packard TopCount NXT (Packard, Downers Grove, IL, United states) after adding scintillation fluid (MicroScint-O, PerkinElmer, Groningen, Netherlands).
IC50 and Ki values were calculated for each of the drugs, both for their ability to inhibit cAMP- and cGMP- efflux, as well as PDE3 and PDE5 activity. […] Inhibition curves were created accordingly, both with and without adjustment for normothermic control.

A further data set concerns PDE3. As to conditions: ref Pathak et al., 2013; cited from earlier work.
PDE3, sequence (Q14432 whole entry): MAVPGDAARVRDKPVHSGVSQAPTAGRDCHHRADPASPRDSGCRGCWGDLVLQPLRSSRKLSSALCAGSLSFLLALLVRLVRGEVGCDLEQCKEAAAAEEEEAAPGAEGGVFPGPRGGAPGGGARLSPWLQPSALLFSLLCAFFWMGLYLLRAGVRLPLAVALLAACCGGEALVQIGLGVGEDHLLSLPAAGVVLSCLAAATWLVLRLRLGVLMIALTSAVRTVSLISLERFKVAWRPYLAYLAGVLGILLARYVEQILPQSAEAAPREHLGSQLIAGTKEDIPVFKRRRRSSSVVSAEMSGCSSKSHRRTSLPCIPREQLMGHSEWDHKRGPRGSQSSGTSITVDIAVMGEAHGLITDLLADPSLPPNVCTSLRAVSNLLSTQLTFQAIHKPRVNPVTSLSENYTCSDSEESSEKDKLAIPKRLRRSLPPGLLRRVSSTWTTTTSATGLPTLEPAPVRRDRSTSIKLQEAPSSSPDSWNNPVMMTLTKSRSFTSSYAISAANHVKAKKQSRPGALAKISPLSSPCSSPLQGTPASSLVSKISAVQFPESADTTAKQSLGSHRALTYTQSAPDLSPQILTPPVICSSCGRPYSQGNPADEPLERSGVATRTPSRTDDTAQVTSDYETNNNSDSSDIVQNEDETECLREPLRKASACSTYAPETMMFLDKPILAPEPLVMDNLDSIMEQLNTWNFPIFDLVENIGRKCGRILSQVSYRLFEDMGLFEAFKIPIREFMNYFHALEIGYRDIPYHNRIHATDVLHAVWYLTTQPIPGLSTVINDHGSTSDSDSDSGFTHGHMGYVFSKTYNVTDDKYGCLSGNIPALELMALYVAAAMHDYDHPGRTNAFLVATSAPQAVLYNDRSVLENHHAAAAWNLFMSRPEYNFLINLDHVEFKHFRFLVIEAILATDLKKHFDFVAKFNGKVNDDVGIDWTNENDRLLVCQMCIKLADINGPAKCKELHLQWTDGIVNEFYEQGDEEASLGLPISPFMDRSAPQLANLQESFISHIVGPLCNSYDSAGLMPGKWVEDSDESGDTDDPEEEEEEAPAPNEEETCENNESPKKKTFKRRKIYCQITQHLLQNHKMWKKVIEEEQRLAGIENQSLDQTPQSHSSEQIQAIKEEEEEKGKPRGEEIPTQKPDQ

Read-outs that look alike come from different tables or passages of the source.

Turning to `C[C@@H]1CC(=O)NN=C1c1ccc(NN=C(C#N)C#N)cc1` [Levosimendan], the “Drug selectivity (IC50)/(IC50): (cGMP-efflux)/(PDE5) inhibition” value was 0.045 in the data set with ABCC5 (20°C); 0.124 in the data set on ABCC5 (24°C); 0.065 in the data set with ABCC5 (28°C); 0.081 with ABCC5 (32°C); 0.093 in the data set with ABCC5 (34°C); 0.184 in the data set with ABCC5 (37°C). Moreover, the “Drug selectivity (IC50)/(IC50): (cGMP-efflux)/(cAMP-efflux) inhibition” value with ABCC5 (28°C) is 0.44; in the data set on ABCC5 (32°C), 0.80; in the data set with ABCC5 (34°C) it was 1.09; in the data set on ABCC5 (37°C) it was 3.03. Also, the “Concentration at which it acts as a PDE3 inhibitor” value with PDE3 is reported as above 0.3 µM.
